In patent US20250333406A1, “SULFONYL CYCLIC DERIVATIVES, AND COMPOSITIONS AND METHODS THEREOF” (Lysoway Therapeutics, Inc., priority 2023, published 2025):

The compounds below were run on TFEB (assay: TFEB Nuclear Translocation Assay). Conditions: read-out: EC50 of TFEB activation.
Assay type: cell-based
`CC(F)(F)c1ccc(S(=O)(=O)n2nc(N3CCN(c4ncc(F)cn4)CC34CC4)c3c(Cl)ccc(F)c32)cc1` [Compound 103, 4-chloro-1-[4-(1,1-difluoroethyl)phenyl]sulfonyl-7-fluoro-3-[7-(5-fluoropyrimidin-2-yl)-4,7-diazaspiro [2.5]octan-4-yl]indazole] gave an EC50 of at most 1000 nM. `CC(F)(F)c1ccc(S(=O)(=O)n2nc(N3CCC4(CCO4)CC34CC4)c3c(Cl)cccc32)cc1` (centres unmarked) [Compound 88, 11-[4-chloro-1-[4-(1,1-difluoroethyl)phenyl]sulfonyl-indazol-3-yl]-8-oxa-11-azadispiro [2.1.35.33]undecane] gave an EC50 of at least 10000 nM. `CC(F)(F)c1cnc(-n2nc(N3CCN(c4ncc(F)cn4)CC34CC4)c3c(Cl)cccc32)nc1` [Compound 136, 4-chloro-1-[5-(1,1-difluoroethyl)pyrimidin-2-yl]-3-[7-(5-fluoropyrimidin-2-yl)-4,7-diazaspiro [2.5]octan-4-yl]indazole] gave an EC50 of at least 10000 nM. `CC(C)S(=O)(=O)c1ccc(S(=O)(=O)n2nc(N3CCN(CC(F)(F)F)CC34CC4)c3c(Cl)cccc32)s1` [Compound 6, 4-chloro-1-[(5-isopropylsulfonyl-2-thienyl)sulfonyl]-3-[7-(2,2,2-trifluoroethyl)-4,7-diazaspiro [2.5]octan-4-yl]indazole] showed an EC50 of at most 1000 nM. Compound `O=S(=O)(c1ccc(OC(F)F)cc1)n1nc(N2CCN(c3ncc(F)cn3)CC23CC3)c2c(Cl)cccc21` [Compound 115, 4-chloro-1-[4-(difluoromethoxy)phenyl]sulfonyl-3-[7-(5-fluoropyrimidin-2-yl)-4,7-diazaspiro[2.5]octan-4-yl]indazole] has an EC50 of at most 1000 nM. In the case of `CC(C)S(=O)(=O)c1ccc(S(=O)(=O)n2nc(N3CCN(c4ncc(F)cn4)C[C@@H]3C(F)(F)F)c3c(Cl)cccc32)cc1` [Compound 68, 4-chloro-3-[(2R)-4-(5-fluoropyrimidin-2-yl)-2-(trifluoromethyl)piperazin-1-yl]-1-(4-isopropylsulfonylphenyl) sulfonyl-indazole], the EC50 is reported as at most 1000 nM. For `O=S(=O)(c1ccn(S(=O)(=O)C2CC2)c1)n1nc(N2CCN(c3ncc(F)cn3)CC23CC3)c2c(Cl)cc(F)cc21` [Compound 173, 4-chloro-1-((1-(cyclopropylsulfonyl)-1H-pyrrol-3-yl)sulfonyl)-6-fluoro-3-(7-(5-fluoropyrimidin-2-yl)-4,7-diazaspiro [2.5]octan-4-yl)-1H-indazole], the EC50 was at most 1000 nM. `O=S(=O)(c1ccc(C(F)(F)C2CC2)cc1)n1nc(N2CCN(c3ncc(F)cn3)CC23CC3)c2c(Cl)cccc21` [Compound 92, 4-chloro-1-((4-(cyclopropyldifluoromethyl)phenyl)sulfonyl)-3-(7-(5-fluoropyrimidin-2-yl)-4,7-diazaspiro [2.5]octan-4-yl)-1H-indazole] showed an EC50 of at most 1000 nM. `O=S(=O)(c1ccc(C(F)(F)C(F)F)cc1)n1nc(N2CCN(c3ncc(F)cn3)CC23CC3)c2c(Cl)cccc21` [Compound 95, 4-chloro-3-(7-(5-fluoropyrimidin-2-yl)-4,7-diazaspiro [2.5]octan-4-yl)-1-((4-(1,1,2,2-tetrafluoroethyl)phenyl)sulfonyl)-1H-indazole] was tested, and the EC50 was at most 1000 nM. With `CC(C)S(=O)(=O)c1nc(S(=O)(=O)n2nc(N3CCN(c4ncc(Cl)cc4F)CC34CC4)c3c(F)ccc(F)c32)cs1` [Compound 193, 4-[3-[7-(5-chloro-3-fluoro-2-pyridyl)-4,7-diazaspiro [2.5]octan-4-yl]-4,7-difluoro-indazol-1-yl]sulfonyl-2-isopropylsulfonyl-thiazole] the EC50 was 1000 to 10000 nM. `O=S(=O)(c1ccc(C(F)F)cc1)n1nc(N2CCN(c3ncc(F)cn3)CC2C(F)(F)F)c2c(Cl)cccc21` (centres unmarked) [Compound 77, 4-chloro-1-[4-(difluoromethyl)phenyl]sulfonyl-3-[4-(5-fluoropyrimidin-2-yl)-2-(trifluoromethyl)piperazin-1-yl]indazole] was tested, and the EC50 was at most 1000 nM. Work on `CC(C)S(=O)(=O)c1ccc(S(=O)(=O)n2nc(N3CCC(=O)CC34CC4)c3c(Cl)cccc32)s1` [Compound 8, 4-[4-chloro-1-[(5-isopropylsulfonyl-2-thienyl)sulfonyl]indazol-3-yl]-4-azaspiro [2.5]octan-7-one] yielded an EC50 of at most 1000 nM. `CC(C)S(=O)(=O)c1ccc(S(=O)(=O)n2nc(N3CCN(c4ncc(Cl)cc4F)CC34CC4)c3c(F)ccc(F)c32)s1` [Compound 33, 3-[7-(5-chloro-3-fluoro-2-pyridyl)-4,7-diazaspiro [2.5]octan-4-yl]-4,7-difluoro-1-[(5-isopropylsulfonyl-2-thienyl)sulfonyl]indazole] showed an EC50 of at most 1000 nM. Work on `CC(C)(F)c1ccc(S(=O)(=O)n2nc(N3CCN(c4ncc(F)cn4)CC34CC4)c3c(Cl)cccc32)cc1` [Compound 97, 4-chloro-1-((4-(2-fluoropropan-2-yl)phenyl)sulfonyl)-3-(7-(5-fluoropyrimidin-2-yl)-4,7-diazaspiro [2.5]octan-4-yl)-1H-indazole] yielded an EC50 of at most 1000 nM. With `O=S(=O)(c1ccc(C2(C(F)(F)F)CC2)cc1)n1nc(N2CCN(c3ncc(F)cn3)CC23CC3)c2c(Cl)cccc21` [Compound 101, 4-chloro-3-[7-(5-fluoropyrimidin-2-yl)-4,7-diazaspiro [2.5]octan-4-yl]-1-[4-[1-(trifluoromethyl)cyclopropyl]phenyl]sulfonyl-indazole] the EC50 was at most 1000 nM. `CC(C)S(=O)(=O)c1ccc(S(=O)(=O)n2nc(N3CCN(c4ncc(F)cn4)C[C@H]3C(F)(F)F)c3c(Cl)cccc32)cc1` (single isomer, unassigned) [Compound 69] was tested, and the EC50 was at most 1000 nM. Compound `CC(C)S(=O)(=O)c1ccc(S(=O)(=O)n2nc(N3CCN(c4ncc(Cl)s4)CC34CC4)c3c(Cl)cc(F)cc32)s1` [Compound 39, 5-chloro-2-(4-(4-chloro-6-fluoro-1-((5-(isopropylsulfonyl)thiophen-2-yl)sulfonyl)-1H-indazol-3-yl)-4,7-diazaspiro [2.5]octan-7-yl) thiazole] has an EC50 of at most 1000 nM. For `CC(C)S(=O)(=O)c1ccc(S(=O)(=O)n2nc(N3CCN(c4ncc(F)cc4F)CC34CC4)c3c(Cl)cc(F)cc32)s1` [Compound 37, 4-chloro-3-[7-(3,5-difluoro-2-pyridyl)-4,7-diazaspiro [2.5]octan-4-yl]-6-fluoro-1-[(5-isopropylsulfonyl-2-thienyl)sulfonyl]indazole], the EC50 was at most 1000 nM. `[2H]c1c([2H])c(S(=O)(=O)n2nc(N3CCN(c4ncc(F)cn4)CC34CC4)c3c(Cl)cccc32)c([2H])c([2H])c1S(=O)(=O)C(C)C` [Compound 64, 4-chloro-3-[7-(5-fluoropyrimidin-2-yl)-4,7-diazaspiro [2.5]octan-4-yl]-1-(2,3,5,6-tetradeuterio-4-isopropylsulfonyl-phenyl) sulfonyl-indazole] showed an EC50 of at most 1000 nM. Compound `CC(C)S(=O)(=O)n1ccc(S(=O)(=O)n2nc(N3CCN(c4ncccn4)CC34CC4)c3c(Cl)cc(F)cc32)c1` [Compound 164, 4-chloro-6-fluoro-1-(1-isopropylsulfonylpyrrol-3-yl)sulfonyl-3-(7-pyrimidin-2-yl-4,7-diazaspiro[2.5]octan-4-yl) indazole] has an EC50 of at most 1000 nM. In the case of `CC(C)S(=O)(=O)n1ccc(S(=O)(=O)n2nc(N3CCCC3C(F)(F)F)c3c(Cl)cc(F)cc32)c1` (centres unmarked) [Compound 184, 4-chloro-6-fluoro-1-(1-isopropylsulfonylpyrrol-3-yl)sulfonyl-3-[2-(trifluoromethyl)pyrrolidin-1-yl]indazole], the EC50 is reported as at most 1000 nM. With `CC(C)S(=O)(=O)n1ccc(S(=O)(=O)n2nc(N3CCN(c4ncc(Cl)cn4)CC34CC4)c3c(Cl)cc(F)cc32)c1` [Compound 154, 4-chloro-3-(7-(5-chloropyrimidin-2-yl)-4,7-diazaspiro [2.5]octan-4-yl)-6-fluoro-1-((1-(isopropylsulfonyl)-1H-pyrrol-3-yl)sulfonyl)-1H-indazole] the EC50 was at most 1000 nM. `CC(C)S(=O)(=O)n1ccc(S(=O)(=O)n2nc(N3CCN(c4ncc(Cl)cc4F)CC34CC4)c3c(F)ccc(F)c32)c1` [Compound 148, 3-[7-(5-chloro-3-fluoro-2-pyridyl)-4,7-diazaspiro [2.5]octan-4-yl]-4,7-difluoro-1-(1-isopropylsulfonylpyrrol-3-yl) sulfonyl-indazole] gave an EC50 of at most 1000 nM. `CC(F)(F)c1ccc(S(=O)(=O)n2nc(N3CCN(C(C)(CF)CF)CC34CC4)c3c(Cl)cccc32)cc1` [Compound 130, 4-chloro-1-[4-(1,1-difluoroethyl)phenyl]sulfonyl-3-[7-[2-fluoro-1-(fluoromethyl)-1-methyl-ethyl]-4,7-diazaspiro [2.5]octan-4-yl]indazole] gave an EC50 of at most 1000 nM. With `CC(C)S(=O)(=O)c1ccc(S(=O)(=O)n2nc(N3CCN(c4ncc(F)cc4F)CC34CC4)c3c(Cl)ccc(F)c32)s1` [Compound 31, 4-chloro-3-(7-(3,5-difluoropyridin-2-yl)-4,7-diazaspiro [2.5]octan-4-yl)-7-fluoro-1-((5-(isopropylsulfonyl)thiophen-2-yl)sulfonyl)-1H-indazole] the EC50 was at most 1000 nM. Work on `CC(C)S(=O)(=O)c1ccc(S(=O)(=O)n2nc(N3CCN(c4ncc(F)cn4)C[C@@H]3C(F)(F)F)c3c(F)cccc32)cc1` [Compound 72, 4-fluoro-3-[(2R)-4-(5-fluoropyrimidin-2-yl)-2-(trifluoromethyl)piperazin-1-yl]-1-(4-isopropylsulfonylphenyl)sulfonyl-indazole] yielded an EC50 of at most 1000 nM. Work on `CN(C)S(=O)(=O)n1ccc(S(=O)(=O)n2nc(N3CCN(c4ncc(F)cn4)CC34CC4)c3c(F)cc(F)cc32)c1` [Compound 169, 3-[4,6-difluoro-3-[7-(5-fluoropyrimidin-2-yl)-4,7-diazaspiro [2.5]octan-4-yl]indazol-1-yl]sulfonyl-N, N-dimethyl-pyrrole-1-sulfonamide] yielded an EC50 of at most 1000 nM. In the case of `CC(C)S(=O)(=O)c1ccc(S(=O)(=O)n2nc(N3CCCC34CC4)c3c(Cl)cccc32)s1` [Compound 17, 4-chloro-1-((5-(isopropylsulfonyl)thiophen-2-yl)sulfonyl)-3-(4-azaspiro [2.4]heptan-4-yl)-1H-indazole], the EC50 is reported as at most 1000 nM. With `CC(C)S(=O)(=O)n1ccc(S(=O)(=O)n2nc(N3CCN(c4ncc(Cl)s4)CC34CC4)c3c(Cl)cc(F)cc32)c1` [Compound 157, 5-chloro-2-(4-(4-chloro-6-fluoro-1-((1-(isopropylsulfonyl)-1H-pyrrol-3-yl)sulfonyl)-1H-indazol-3-yl)-4,7-diazaspiro [2.5]octan-7-yl) thiazole] the EC50 was at most 1000 nM.
